Results reported in patent publication US10918687B2, “Kava derived therapeutic compounds and methods of use thereof” (KUALITY HERBCEUTICS LLC, priority 2013, dated 2021).

Key:
[1] = system: NNK-induced DNA adducts in lung tissues; experiment: NNK-induced DNA adducts in A/J mouse lung tissues (LC-ESI-MS/MS); type: in vivo, A/J mice; details: 24 h after NNK; for minimum chemopreventive (effective) dose estimated from DNA adduct reduction: dose-response of O^6-mG reduction in lung
Source text: DNA was isolated from the whole lung tissue of each individual mouse following Puregene DNA isolation protocol (Qiagen Corp, Valencia, Calif.) (Urban et al., Chem Res Toxicol 2012; 25:2167-78). 7-pobG, O^2-pobdT, O^6-pobdG, and O^6-mG were quantified by LC-ESI-MS/MS, following established protocols (Urban et al., Chem Res Toxicol 2012; 25:2167-78; Peterson et al., Cancer Res 1991; 51:5557-64).
After one-week acclimation, A/J mice were weighed and randomized into seven groups (3 mice per group) and switched to the AIN-93 G diet on a date defined as Day 1. Mice in Groups 1 and 2 were given the AIN-93 G diet during Day 1-Day 7. Mice in Groups 3-7 were given the AIN-93 G diet supplemented with desmethoxyyangonin, (+)-DHK, (+)-kavain, (+)-DHM, or (+)-methysticin respectively, at a dose of 1 mg/g of diet during Day 1-Day 7. Mice in Groups 2-7 were given a single dose of NNK at 100 mg/kg bodyweight in saline (0.1 ml) via intraperitoneal (i.p.) injection at the beginning of Day 7 while mice in Group 1 were given saline (0.1 ml). Mice were euthanized by CO2 overdosing 24 h after NNK treatment, and lung tissues were collected and stored at −80° C. until DNA isolation. A number of NNK-induced DNA modifications (O^6-mG, 7-pobG, O^6-pobdG and O^2-pobdT) were quantified by following a reported procedure (Leitzman, P et al. (2014) Cancer. Prev. Res., 7: 86-96).
(§1) After one-week acclimation, A/J mice were weighed and randomized into ten groups (3 mice per group except for Group 1 that had one mouse as the negative control) and switched to the AIN-93 G diet on a date defined as Day 1. Mice in Groups 1 and 2 were given the AIN-93 G diet during Day 1-Day 7. Mice in Groups 3-10 were given the AIN-93 G diets supplemented with kava, (+)-DHK, (+)-DHM, and synthetic (±)-DHM respectively at the specified dose during Day 1-Day 7. Mice in Groups 2-10 were given a single dose of NNK at 100 mg/kg bodyweight in saline (0.1 ml) via i.p. injection at the beginning of Day 7 while the mouse in Group 1 was given saline (0.1 ml). Mice were euthanized by CO2 overdosing 24 h after NNK treatment, and lung and liver tissues were collected and stored at −80° C. until DNA isolation. A set of NNK-induced DNA adducts (O^6-mG, 7-mG, 7-pobG, O^6-pobdG, O^2-pobdT, 7-phbG, O^6-phbdG and O^2-phbdT) were quantified by following reported procedures (Leitzman, P et al. (2014) Cancer. Prev. Res., 7: 86-96; Peterson, L A et al. (2013) Chem. Res. Toxicol. 26: 1464-1473; Upadhyaya, P et al. (2008) Chem. Res. Toxicol. 21: 1468-1476). For 7-mG isolation, DNA (30 μg) was dissolved in 10 mM sodium phosphate buffer, pH 7 (500 μL) and spiked with [^13C1^2H3]7-mG (10 pmol). Samples were heated to 80° C. for 30 minutes. An aliquot (100 μL) was removed for 7-mG analysis.

[2] = system: human lung H2009 cancer cell line tumors; experiment: H2009 human lung cancer xenograft in nude mice; type: in vivo; details: 40 mg/kg bodyweight via i.p. injection or oral gavage
Description: Typically human origin lung cancer cells were cultured and mixed with Metrigel. 2-5×10^6 cells were inoculated in the nude mice. Mice were randomized into different groups when the tumor size reached ˜50 mm^3. Treated mice received drug candidate at a dose of 40 mg/kg bodyweight via i.p. injection or oral gavage. The tumor size was monitored once or twice a week until 5 weeks since the treatment or when the size of the tumors >1000 mm^3. Mouse bodyweight was monitored once a week. Mice were CO^2 euthanized and the tumors were collected and weighed. Major organs were grossly examined and weighed as well.

[3] = system: PhIP-induced DNA damage in hepe1c1c7 cells; experiment: PhIP-induced DNA damage in hepe1c1c7 cells; type: cell-based, rodent; details: 1, 5 and 25 μM co-treated with PhIP (10 μM) for 24 hours
Source text: (§2) The goal of this study was to explore the potential scope of dihydromethysticin in blocking/reducing different carcinogen-induced DNA damage and detoxifying such carcinogens. […] Benzo(a)pyrene (BaP) is a representative polyaromatic hydrocarbon-based carcinogen in cigarette smoke and is present in various industrial/motor exhaust/waste. BaP is a human carcinogen to lung, stomach and other tissues. A rodent liver cancer cell line was used in these studies. Briefly, the hepe1c1c7 cells were co-treated with dihydromethysticin (1, 5, and 25 μM) and PhIP (10 μM) for 24 hours with DNA isolated and PhIP-based DNA damage quantified (FIG. 28A). […] Similarly the cells were co-treated with dihydromethysticin (1, 5, and 25 μM) and BaP (0.3 μM) for 3 hours with DNA isolated and BaP-based DNA damage quantified (FIG. 28B).

[4] = system: BaP-induced DNA damage in hepe1c1c7 cells; experiment: BaP-induced DNA damage in hepe1c1c7 cells; type: cell-based, rodent; details: 1, 5 and 25 μM co-treated with BaP (0.3 μM) for 3 hours
Source text: as §2

[5] = system: APAP-induced hepatotoxicity; experiment: Short-term combination study: potentiation of APAP-induced hepatotoxicity in C57BL/6 mice; details: 3-day daily gavage, DHM 37.5 mg/kg, FKB 11.5 mg/kg
Source text: Six week-old female C57BL/6J mice (Jackson Laboratories, ME) were housed at specific pathogen-free animal facilities of Research Animal Resources, University of Minnesota with free access to standard rodent food and water. All mice were acclimatized for one week before being used for experiments. Mice were gavaged with dose formulations at the indicated doses and times, euthanized by CO2 overdosing with necropsy performed by experienced researchers.
The short-term combination studies were designed to evaluate the potential synergism of kava and its chemicals to APAP induced hepatotoxicity. C57BL/6 mice were randomized (8-15 mice per group) and were administered with PEG-400 (200 μL), kava (500 mg/kg bodyweight), DHM or FKA and FKB in PEG-400 (200 μL) at the indicated doses daily via oral gavage for two days. On the third day, mice in the respective groups were co-administered with APAP (800 mg/kg bodyweight) in PEG-400 (200 μL). Bodyweight was recorded daily. Necropsies were performed 24 hours after the last gavage by experienced researchers. Serum from each mouse was analyzed for ALT and AST. Livers were collected and preserved in 10% neutral buffered formalin. Appropriately fixed tissues were processed into paraffin blocks using standard histological techniques, and 5 μm sections were cut and stained with hematoxylin and eosin (H&E).
The clinical chemistry data were reported as mean±SD (n=4-15). […] One-way analysis of variance (ANOVA) was used to compare the means among different groups in the short-term combination studies. Dunnett's test was used for comparisons of APAP and other treatment groups when the one-way ANOVA analysis was statistically significant. p-value≤0.05 was considered statistically significant. All analyses were conducted in GraphPad Prism 4 (GraphPad Software, Inc. La Jolla, Calif.).

[6] = system: NNK-induced DNA damage in liver tissues; experiment: NNK-induced DNA damage in A/J mouse liver tissues; type: in vivo, A/J mice; details: diet Day 1-Day 7, 24 h after NNK; data not shown
Description: DNA was isolated and purified from ˜100 mg lung and liver tissues of each mouse, following Genomic-tip 100/G protocol from Qiagen Corp (Valencia, Calif.).
as §1

[7] = 1, 0.25, 0.1 and 0.01 mg/g of diet
[8] = kava 5 and 1.25 mg/g, (+)-DHM 1, 0.25, 0.1 and 0.01 mg/g of diet

| Compound | minimum chemopreventive (effective) dose estimated from DNA adduct reduction [1] | tumor volume relative to control group [2] | PhIP-induced DNA damage [3] | BaP-induced DNA damage [4] | serum ALT and AST when combined with APAP, vs APAP alone ([5]; APAP 800 mg/kg on third day, FKA and FKB 1, 2, 4 times abundance) | serum ALT and AST, treatment alone (without APAP) ([5]; kava 500 mg/kg, FKA and FKB at 1, 2 and 4 times their abundance in kava 500 mg/kg) | effect on O^6-mG ([1]; 0.01 mg/g of diet) | extent of reduction in O^6-mG ([1]; 0.1 mg/g of diet) | effect on 7-mG [1, 7] | effect on PHB adducts (7-phbG, O^6-phbdG, O^2-phbdT) [1, 7] | effect on NNK-induced O^6-mG ([1]; isolated kavalactones 1 mg/g of diet Day 1-Day 7) | effect on O^6-mG, dose-response [1, 8] | effect on POB adducts, dose-response [1, 8] | effect on NNK-induced DNA damage in the liver tissues [6] |
| --- | --- | --- | --- | --- | --- | --- | --- | --- | --- | --- | --- | --- | --- | --- |
| COC1=CC(=O)O[C@@H](CCc2ccc3c(c2)OCO3)C1 [DHM, dihydromethysticin] | 0.01-0.1 mg/g of diet | significantly reduced | effectively and dose-dependently reduced | effectively and dose-dependently reduced | no effect | no effect | – | – | – | – | – | – | – | – |
| COC1=CC(=O)O[C@@H](CCc2ccc3c(c2)OCO3)C1 [(+)-DHM, (+)-dihydromethysticin] | 0.01-0.1 mg/g of diet | – | – | – | – | – | no effect | comparable to that induced by kava at a dose of 1.25 mg/g of diet | dose-dependently reduced | dose-dependently reduced | significantly reduced | preferentially and dose-dependently reduced | weaker effects | none of the treatments had significant effects |
